These results are taken from patent US11065266B2, “Method of treating melanoma using an inhibitor of an atypical protein kinase C” (UNIVERSITY OF SOUTH FLORIDA, priority 2016, dated 2021).

The test system of series [1] is malignant melanoma cells (SK-MEL-2 and MeWo). Briefly: Viable cell counts, malignant cell lines taken together. Format: cell-based. The settings on record: Homo sapiens; for IC50: from dose curves of cell proliferation, read-out: half maximal inhibitory concentration (IC50). As for the experimental part:
Dose curves (inhibitor concentrations vs cell population after 3 days) for ICA-1, ACPD, DND and ζ-Stat were obtained for all 3 cell lines as follows. PCS-200-013, SK-MEL-2 and MeWo cells (4×10^4) were cultured in 25 cm^2 flasks and treated with either equal volume of sterile water (vehicle control). Cells were treated every 24 h during 3 day incubation period and cells were then lifted using Trypsin-EDTA solution (1.5 mL/flask) and neutralized with the equal volume of media. Subsequently, live cells were counted using the Scepter, an automated cell counter from Millipore (Billerica, Mass.). The cell growth inhibition for all inhibitors for the two malignant cell lines (SK-MEL-2 and MeWo) were quantified by counting the viable cells at 24 hour intervals. Cell counts obtained from Scepter was compared with the counts obtained from the Cellometer Vision from Nexcelom Bioscience (Lawrence, Mass.).
Dose curves for ACPD and DNDA were obtained to investigate the effect on cell proliferation of normal and malignant cell lines over a wide range of concentrations. […] ACPD decreased proliferation by 20% for 1.5 μM (p≤0.01), 48% for 2.5 μM (p≤0.01) and 51% for 3.5 μM (p≤0.001)(FIG. 5B). DNDA decreased by 17% for 500 nM (p≤0.01), 24% for 1.5 μM(p≤0.01), 52%) for 2.5 µM (p≤0.01) and 57 for 3.5 μM (p≤0.01)(FIG. 5C) in SK-MEL-2 cells. ACPD decreased proliferation by 28% for 500 nM (p≤0.01), 41% for 1.5 μM (p≤0.01), 54% for 2.5 µM (p≤0. 01) and 58% for 3.5 μM (p≤0.01) (FIG. 5D). DNDA decreased proliferation by 37% for 500 nM (p≤0.01), 41% for 1.5 μM (p≤0.01), 46% for 2.5 μM (p≤0.01) and 48% for 3.5 μM (p≤0.01) (FIG. 5E) in the MeWo cells.
To test the effects of ζ-Stat on malignant cells approximately 4×10^4 of cells were cultured in 25 cm2 flasks and treated with either equal volume of sterile water (control) or ζ-Stat (0.1-10 μM). Additional doses of sterile water or inhibitor were supplied every 24 h during 3 day incubation period. Subsequently, cells were lifted and counted. Cells were quantified by counting the viable cells at 24 hour intervals. […] N=3 experiments were performed for each cell line and mean±SD are plotted.

The next series deals with PCS-200-013 normal cells. Briefly: WST-1 assay for cell viability and cytotoxicity. Format: cell-based, human. The settings on record: treated at IC50, 3 days. As for the experimental part:
(§1) Approximately 4×10^3 cells (PCS-200-013, SK-MEL-2 and MeWo) were cultured in a 96 well plate. […] This IC50 was obtained based on the cell viability counts in the previous experiments. Additional doses of sterile water or inhibitor were supplied every 24 h during 3 day incubation period. At the end of 3 day treatment, media were removed and fresh media (100 μL) were added with 4-[3-(4-iodophenyl)-2-(4-nitropheny))-2H-5-tetrazolio]-1,3-benzene disulfonate (WST-1) reagent (10 μL) to each well. The absorbance was measured at 450 nm for every 0.5 hour up to 3 hours using the Synergy HT microplate reader from Biotek (Winooski, Vt.).
(§2) WST-1 assay was performed to determine the in-vitro cytotoxicity of ACPD and DNDA on normal and malignant cell lines. Measured absorbance at 450 nm is directly proportional to the number of cells present. Cells produce a water soluble formazan with WST-1 as a result of their mitochondrial dehydrogenase activity. WST-1 assay is preferred over 3-(4,S-Dimethyl-2-thiazolyl)-2, 5-diphenyl-2Htetrazolium bromide (MTT) test since MTT needs to add acidic isopropanol to dissolve formazan which gives an additional toxicity to cells.

The test system of series [2] is SK-MEL-2 cells. Briefly: WST-1 assay for cell viability and cytotoxicity. Format: cell-based, human. The conditions noted are these: treated at IC50, 3 days. As for the experimental part:
as §1, §2

The test system of series [3] is SK-MEL-2 cells. Briefly: BME invasion assay (Calcein-AM fluorescence). Format: cell-based, human. The settings on record: 2.5 μM, vs control. As for the experimental part: (§3) This invasion assay was performed to investigate the effect of ACPD and DNDA on malignant melanoma cell invasion in vitro. Even though it is similar to the Boyden chamber assay, it avoids scraping off the Matrigel and staining to assess migrated number of cells through filter. […] Migrated cells were stained with a fluorescent marker, Calcein-AM. Live cells cleave the ester (AM) of the molecule in order to produce fluorescence. Thus, the amount of fluorescence accumulated in the bottom chamber is proportional to the number of invaded cells. The relative fluorescent units (excitation at 485 and emission at 528 nm) after 2 h exposure were reported for inhibitor treatments for both SK-MEL-2 and MeWo cell lines compared to controls (FIG. 8D).

A further series has as its system MeWo cells. Briefly: BME invasion assay (Calcein-AM fluorescence). The conditions noted are these: 2.5 μM, vs control. Format: cell-based, human. The method, then:
as §3

`O=S(=O)(O)c1cc(O)c2c(S(=O)(=O)O)cc(S(=O)(=O)O)cc2c1` [ζ-Stat, 8-hydroxy-1,3,6-naphthalenetrisulfonic acid]: the cytotoxicity at 2.5 µM in series [1] (2.5 μM, read-out: inhibition of cell viability according to cell counts) was 20 to 25%. Moreover, in series [1] (5 μM, read-out: inhibition of cell viability according to cell counts), the cytotoxicity at 5 µM was around 50%. Also, in series [1] (10 μM, read-out: inhibition of cell viability according to cell counts), the cytotoxicity at 10 µM is around 50%.
`CC(=O)C1=C(O)CCC1=O` [ACPD, 2-acetyl-1,3-cyclopentanedione]: the “WST-1 absorbance at 450 nm, effect on normal cells” value in the series on PCS-200-013 normal cells was “did not show a significant effect”. Besides, the “WST-1 absorbance at 450 nm, effect” value with SK-MEL-2 cells [2] is given as “did not show a significant effect”. Moreover, the reduction of invasion in the series on SK-MEL-2 cells [3] is listed as 24%; with MeWo cells it was 21%. In addition, the IC50 in series [1] is around 2.5 µM.
As to `Nc1c(S(=O)(=O)O)cc2cc(S(=O)(=O)O)ccc2c1N` [DNDA, 3,4-diamino-2,7-naphthalenedisulfonic acid], the “WST-1 absorbance at 450 nm, effect on normal cells” value in the series on PCS-200-013 normal cells is on record as “did not show a significant effect”. The “WST-1 absorbance at 450 nm, effect” value in the series on SK-MEL-2 cells [2] is given as “significant decrease in absorption”. Besides, the reduction of invasion with SK-MEL-2 cells [3] and in the series on MeWo cells was 32% in each case. The IC50 in series [1] was around 2.5 µM.
